Here are results for 8 compounds from PubChem BioAssay (NCI).

Each structure is given as a SMILES string.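 These data come from cells grown in 96-well plates and exposed to compound for 48 hours at five concentrations. TGI is the concentration that stops growth completely.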 A value given as a limit tells only on which side of the number the result lay.

Test systems include PC-3 prostate; NCI-H226 lung; EKVX NSCLC; MCF7 breast; NCI-H23 lung; MDA-MB-231 breast; NCI-H522 lung; SF-268 CNS; HOP-92 NSCLC; CAKI-1 renal; ACHN renal; OVCAR-5 ovarian; MDA-N; T-47D breast; HCT-15 colon; HOP-62 NSCLC; NCI-H460 lung; MALME-3M melanoma.
What all share (assay): NCI tumour cell line growth inhibition, 48 h

As to `Cc1cc(C)c2c(=O)n(CC(O)CN(Cc3ccccc3)CC(O)Cn3sc4nc(C)cc(C)c4c3=O)sc2n1` (centres undefined), the TGI is 30.4 µM in the assay on PC-3 prostate; 33.5 µM with NCI-H226 lung; 44.5 µM in the assay with EKVX NSCLC; 32.1 µM in the assay on MCF7 breast; 33.4 µM in the assay with NCI-H23 lung; 31.6 µM in the assay on MDA-MB-231 breast. Also, the TGI came out at 22 µM with NCI-H522 lung; 30.9 µM in the assay with SF-268 CNS; 31.7 µM in the assay on HOP-92 NSCLC; 33.4 µM with CAKI-1 renal; 30.1 µM with ACHN renal; 36.4 µM in the assay with OVCAR-5 ovarian. Further, the TGI with MDA-N was found to be 32.8 µM; with T-47D breast it was 41 µM; with HCT-15 colon it was 34.4 µM; with HOP-62 NSCLC, 30.1 µM; in the assay with NCI-H460 lung, 39.3 µM; in the assay on MALME-3M melanoma, 27.4 µM.
Regarding `O=C(CCN1CCCCC1)Nc1ccc2c(c1)C(=O)c1ccc(NC(=O)CCN3CCCCC3)cc1C2=O`, the TGI came to 5.1 µM in the assay on PC-3 prostate; 29.6 µM with NCI-H226 lung; 30.2 µM with EKVX NSCLC; 5.91 µM with MCF7 breast; 12.5 µM in the assay with NCI-H23 lung; 3.6 µM in the assay on MDA-MB-231 breast. Besides, the TGI turned out to be 32.7 µM in the assay with NCI-H522 lung; 24.2 µM in the assay on SF-268 CNS; 29.2 µM in the assay with HOP-92 NSCLC; 27.5 µM in the assay with CAKI-1 renal; 23.9 µM in the assay on ACHN renal; 31.4 µM in the assay with OVCAR-5 ovarian. Further, the TGI with MDA-N amounted to 3.03 µM; in the assay on T-47D breast, 32.1 µM; in the assay with HCT-15 colon it was 7.63 µM; in the assay on HOP-62 NSCLC, 6.67 µM; in the assay on NCI-H460 lung, 3 µM; with MALME-3M melanoma, 25.5 µM.
`O=C(N/C(=C\c1ccccc1)c1nc2ccccc2c(=O)o1)c1ccccc1`: the TGI was > 100 µM in the assay with PC-3 prostate; > 100 µM in the assay on NCI-H226 lung; > 100 µM with EKVX NSCLC; > 100 µM in the assay on MCF7 breast; > 100 µM in the assay on NCI-H23 lung; > 71.9 µM with MDA-MB-231 breast. The TGI is > 100 µM in the assay with NCI-H522 lung; > 78.2 µM with SF-268 CNS; > 100 µM in the assay with HOP-92 NSCLC; > 100 µM in the assay on CAKI-1 renal; > 100 µM in the assay with ACHN renal; > 100 µM with OVCAR-5 ovarian. Besides, the TGI with MDA-N, in the assay with T-47D breast, in the assay on HCT-15 colon, in the assay on HOP-62 NSCLC, in the assay with NCI-H460 lung and with MALME-3M melanoma was > 100 µM each time.
For `CC(=O)Nc1ccc(S(=O)(=O)c2nnc(NC(C)=O)s2)cc1`, the TGI in the assay on PC-3 prostate, in the assay on NCI-H226 lung, with EKVX NSCLC, in the assay with MCF7 breast, with NCI-H23 lung and in the assay on MDA-MB-231 breast was > 100 µM throughout. In addition, the TGI in the assay with NCI-H522 lung, with SF-268 CNS, in the assay on HOP-92 NSCLC, in the assay with CAKI-1 renal, in the assay with ACHN renal and in the assay with OVCAR-5 ovarian was > 100 µM each time. Moreover, the TGI in the assay on MDA-N, with T-47D breast, in the assay on HCT-15 colon, in the assay with HOP-62 NSCLC, with NCI-H460 lung and in the assay with MALME-3M melanoma was > 100 µM throughout.
Take `N#Cc1ccc(C2ON=C(c3ccccc3)N2C23CC4CC(CC(C4)C2)C3)cc1` (centres undefined): the TGI in the assay with PC-3 prostate, in the assay on NCI-H226 lung, with EKVX NSCLC, in the assay with MCF7 breast, in the assay with NCI-H23 lung and in the assay with MDA-MB-231 breast was > 10 µM throughout. For the same compound, the TGI in the assay with NCI-H522 lung, in the assay with SF-268 CNS, in the assay with HOP-92 NSCLC, with CAKI-1 renal, in the assay on ACHN renal and with OVCAR-5 ovarian was > 10 µM in each case. The TGI in the assay with MDA-N, in the assay on T-47D breast, with HCT-15 colon, in the assay on HOP-62 NSCLC, in the assay on NCI-H460 lung and in the assay on MALME-3M melanoma was > 10 µM each time.
As to `O=C1c2ccccc2CC12Cc1cc3c(cc1C2)CCC3`, the TGI with PC-3 prostate, in the assay on NCI-H226 lung, in the assay on EKVX NSCLC, in the assay with MCF7 breast, in the assay with NCI-H23 lung and in the assay with MDA-MB-231 breast was > 100 µM each time. For the same compound, the TGI with NCI-H522 lung, in the assay on SF-268 CNS, in the assay with HOP-92 NSCLC, in the assay with CAKI-1 renal, with ACHN renal and with OVCAR-5 ovarian was > 100 µM in each case. Moreover, the TGI with MDA-N is > 100 µM; in the assay on T-47D breast, > 100 µM; in the assay on HCT-15 colon, > 100 µM; with HOP-62 NSCLC it was > 100 µM; with NCI-H460 lung, > 100 µM; with MALME-3M melanoma, 76.2 µM.
Regarding `Cc1n[nH]c(=O)n1C1CC1`, the TGI in the assay on PC-3 prostate, in the assay on NCI-H226 lung, in the assay on EKVX NSCLC, with MCF7 breast, with NCI-H23 lung and with MDA-MB-231 breast was > 100 µM throughout. The TGI in the assay with NCI-H522 lung, with SF-268 CNS, with HOP-92 NSCLC, in the assay with CAKI-1 renal, in the assay on ACHN renal and in the assay with OVCAR-5 ovarian was > 100 µM in each case. Besides, the TGI with MDA-N, in the assay on T-47D breast, in the assay on HCT-15 colon, in the assay on HOP-62 NSCLC, in the assay on NCI-H460 lung and in the assay on MALME-3M melanoma was > 100 µM each time.
As to `CCOC(=O)C1=C(C(=O)OCC)SC2(S1)C(C(=O)OCC)=C(C(=O)OCC)Sc1c2ssc1=O`, the TGI in the assay with PC-3 prostate stood at 2.96 µM; in the assay with NCI-H226 lung it was 42.2 µM; with EKVX NSCLC, 5.78 µM; in the assay with MCF7 breast, 3.5 µM; in the assay with NCI-H23 lung, 4.02 µM; in the assay on MDA-MB-231 breast, 3.88 µM. Further, the TGI with NCI-H522 lung came to 4.46 µM; with SF-268 CNS, 4.19 µM; in the assay with HOP-92 NSCLC, 2.81 µM; with CAKI-1 renal it was 5.15 µM; with ACHN renal it was 3.11 µM; in the assay with OVCAR-5 ovarian, 12.4 µM. The TGI was 4.36 µM with MDA-N; 4.62 µM in the assay with T-47D breast; 2.72 µM in the assay with HCT-15 colon; 3.21 µM in the assay with HOP-62 NSCLC; 21.9 µM in the assay with NCI-H460 lung; 4.19 µM in the assay with MALME-3M melanoma.
